In US12486255B2, “Modulators of RAS GTPase” (Tosk, Inc., priority 2018, dated 2025):
Where two headings read alike, the source gives them in different places.

How the values were obtained:
[1] = tested on: phosphorylated ERK 1/2 (T202/Y204); test: Phosphorylated ERK bioassay (Western blot, SW480 cells); assay type: cell-based, human; conditions: 3 μM, 24 hours, in the presence of serum
Procedure: As described herein, the main downstream target for kRAS is ERK (Samatar et al., Targeting RAS-ERK signaling in cancer: promises and challenges. Nat Rev Drug Discov. 2014; 13:928-42). kRAS activates ERK leading to phosphorylated ERK. A compound that suppresses kRAS activity is expected to lower phosphorylated ERK.
Test articles abrogate the expression of phosphorylated ERK (T202/Y204) SW480 cells were subjected to test article incubation at 3 μM for 24 hours in the presence of serum to mimic natural growth environment. Cells were extracted and total protein of samples normalized through BCA assay. Processed extracts were subjected to SDS-PAGE/Western blot and blotted for phosphorylated ERK 1/2 (T202/Y204); ERK 1/2; and α-Tubulin.
The compound U0126 in FIG. 8 is a MEK inhibitor which is known to suppress phosphorylation of ERK. The compound was tested along with the test articles to serve as a positive control.

[2] = tested on: flies expressing G12V in their wing; test: Fly assay, wing phenotype reversal; assay type: in vivo, Drosophila
From the text: Each wing from mutant flies receiving treatment with either water or compound received a score from two independent scorers according to the scheme outlined in the schematic. The analysis of the scores given to the compound group was compared to the scores given for the control (water) group.
Embryo preparation. GAL4 virgin ♀ were collected over a period of 3-5 days, then crossed with kRAS G12V (3M) ♂ inside a plastic condo supplied with grape agar containing yeast paste. Flies were acclimated for 2 days and embryos present after a span of 4-5 hours were collected along with the agar plate and incubated for 24 hours. The next day, embryos were washed off the agar plate with Embryo Wash solution (120 mM NaCl, 0.03% Triton X) and resuspended in Embryo Inoculation solution (120 mM NaCl, 420 mM Sucrose, 0.05% Triton X-100). Embryos were counted and diluted to 15 embryos/10 μL. 150 embryos (100 μL) were dispensed into each vial.
Food-drug admix preparation. Each fly vial contains 1.5 g of fly food in 4 ml water. The quantity of drug needed is calculated for a total of 4 vials, each vial containing 10 μM of Structure 2. This is equivalent to 0.014 mg of Structure 2/vial, for a total of 0.056 mg of Structure 2.
A stock solution of 0.1 mg/mL Structure 2 in ethanol is prepared. A 500-ml round bottom flask is charged with 6 g of fly food (1.5 g×4), to which is added 20 mL of ethanol, ensuring that the food is entirely covered in solvent. To this heterogeneous solution is added an appropriate amount of Structure 2 stock solution, containing the calculated required quantity, in this case 0.56 mL stock solution.
The ethanol is evaporated under reduced pressure via a rotary evaporator equipped with a bump trap. The resulting dry food is added to three vials, each containing 1.5 g, so that the experiment is performed in triplicate. The quantity is calculated initially for 4 vials, because some food will be stuck to the walls of the round bottom flask and some is also invariably lost in the bump trap during the solvent evaporation step. Control vials lacking Structure 2 or Structure 3 are also analyzed and undergo the exact same food preparation and solvent extraction procedure.
Embryo addition to vials. After all the food-drug admix is prepared and added to the respective vials, to each vial is added 4 mL of water and the vial briefly vortexed. To this liquid mixture is added the embryo solution (100 μL), the vials capped and placed in an incubator or fly room.
Wing mounting and scoring. Flies hatch 10-12 days after the above experimental setup is performed. The resulting adult flies are submerged in a 3:1 70% ethanol:glycerol solution for 24 hours, then wings are dissected with curved Vannas spring scissors (FST #15001-08). The wings are mounted in an 80% glycerol solution on a microscope slide under coverslip seal.
Pictures of the wings were taken using an Accu-Scope microscope equipped with a digital camera and connected to a laptop containing the Accu-Scope Micrometric SE Premium software. The wings were scored according to the following scoring tree:
Wing score analysis. After each wing received a score from two independent scorers, the analysis of the scores given to the Structure 2 and 3 groups was compared to the scores given for the control group and was performed using the IBM SPSS software.
Wings that received a score of 3 or above are considered “reversed”, since their phenotype is closer to WT than to kRAS G12V bearing Drosophila. The findings are plotted in FIG. 9. […]

[3] = Multi-day safety study in mice; assay type: in vivo; conditions: female CD1 mice, 10 mg/kg ip daily for 6 days
Procedure: The multi-day safety study used female, 10 week old, CD1 mice (4/treatment group) dosed with DMSO. Mice were administered 2 mg/kg of Structure 2 or 10 mg/kg Structure 3, ip, daily for 6 days and evaluated for changes clinical chemistry values, hematology values and animal weight as well as signs of health and grooming habits.
Heparinized blood samples were obtained by retro-orbital puncture on Day 6, 12 hours after the last dose of Structure 2. The plasma harvested from the blood was analyzed for standard clinical chemistry parameters (ALB. ALP, ALT, AMY, TBIL, BUN, CA, PHOS, CRE GLU, NA, K, TP & GLOB) and hematology (WBC, LYM, MON, GRA, RBC, HGB, HCT, MCV, MCH, MCHC, RDWc, PLT, PCT, MPV, PDWc) analytes (see definitions herein). Animal weight changes were also monitored. Values for all analytes were analyzed by one way ANOVA plus post-hoc Bonferroni using SPSS (IBM, Armonk, NY).

[4] = Pharmacokinetic study in mice; assay type: in vivo; conditions: ip, 10 mg/kg, CD-1 mice, 10 mg/kg; for Vd/F: CD-1, mouse, read-out: Vz/F
Procedure: Pharmacokinetic studies were carried out using 10 weeks old CD-1 mice. Structure 2 and Structure 3 were injected ip, 3 mg/kg and 10 mg/kg, respectively, at 8 time points (0, 0.25, 0.5, 1, 2, 4, 8 and 24 hours post-dose). Blood was collected from 3 animals/time point and concentrations of Structure 2 in plasma determined using LC/MS.

c1ccc(-n2cc(CN3CCN(c4ncnc5ccccc45)CC3)cn2)cc1 [Structure 3, 4-(4-((1-phenyl-1H-pyrazol-4-yl)methyl)piperazin-1-yl)quinazoline]
phosphorylated ERK (T202/Y204) [1]: dramatically decrease phosphorylated ERK
wing scores compared to the control group ([2]; Tukey HSD and LSD p<0.001, Mann Whitney p=0.002): significantly different from the control group
Reversal Phenotype (%) ([2]; wings with score of 3 or above, Structure 2 at 10 μmolar, control 8.27): 16%
body weight or grooming habits versus dosing vehicle treated animals [3]: no statistically significant difference
clinical chemistry changes versus dosing vehicle treated animals [3]: no significant clinical chemistry changes
ALB ([3]; Day 6): 4.0 ± 0.10 g/dL
ALP ([3]; Day 6): 106.3 ± 21.40 U/L
ALT ([3]; Day 6): 77.3 ± 16.30 U/L
AMY ([3]; Day 6): 932.0 ± 98.90 U/L
BUN ([3]; Day 6): 22.0 ± 5.40 mg/dL
CRE ([3]; Day 6): <0.40 mg/dL
Ca^++ ([3]; Day 6): 9.7 ± 0.10 mg/dL
GLOB ([3]; Day 6): 1.2 ± 0.10 g/dL
GLU ([3]; Day 6): 309.0 ± 45.10 mg/dL
GRA ([3]; Day 6): 0.4 ± 0.20 10^9/l
GRA (%) ([3]; Day 6): 7.0 ± 3.00%
HCT ([3]; Day 6): 43.1 ± 1.80%
HGB ([3]; Day 6): 14.1 ± 0.50 g/dL
K^+ ([3]; Day 6): 4.6 ± 0.20 mmol/L
LYM ([3]; Day 6): 4.6 ± 1.40 10^9/l
LYM (%) ([3]; Day 6): 90.0 ± 4.30%
MCH ([3]; Day 6): 16.0 ± 0.70 pg
MCHC ([3]; Day 6): 32.7 ± 2.50 g/dL
MCV ([3]; Day 6): 49.3 ± 4.30 fL
MON ([3]; Day 6): 0.2 ± 0.20 10^9/l
MON (%) ([3]; Day 6): 3.1 ± 2.00%
MPV ([3]; Day 6): 6.7 ± 0.40 fL
NA^+ ([3]; Day 6): 147.8 ± 2.20 mmol/L
PCT ([3]; Day 6): 0.4 ± 0.10%
PDWc ([3]; Day 6): 30.0 ± 1.50%
PHOS ([3]; Day 6): 9.8 ± 0.40 mg/dL
PLT ([3]; Day 6): 578.8 ± 86.70 10^9/l
RBC ([3]; Day 6): 8.8 ± 0.50 10^12/l
RDWc ([3]; Day 6): 17.4 ± 0.70%
TBIL ([3]; Day 6): 0.4 ± 0.00 mg/dL
TP ([3]; Day 6): 5.2 ± 0.20 g/dL
WBC ([3]; Day 6): 5.2 ± 1.80 10^9/l
Vd/F ([4]; plasma, plasma): 3.19 L/kg
Vd/F ([4]; plasma, plasma, text statement): > 3 L/kg
mean resident times (MRT) [4]: approximately one to two
AUCINF ([4]; plasma): 4.12 (Microgram * Hour)/mL
AUC_%Extrap ([4]; plasma): 4.92%
AUClast ([4]; plasma): 3.92 (Microgram * Hour)/mL
CI/F ([4]; plasma): 4.04 mL/min/kg
Concentrationmax ([4]; plasma): 3.38 Microgram/mL
Lambda_z ([4]; plasma): 0.76 h⁻¹
MRTINF ([4]; plasma): 1.25 h
MRTlast ([4]; plasma): 1.03 h
Timelast ([4]; plasma): 4.00 h
concentration at 4 Hour ([4]; mouse, plasma, read-out: Concentrationlast): 150 ng/mL
